Reference: patent US20170240556A1, “BIFLUORODIOXALANE-AMINO-BENZIMIDAZOLE KINASE INHIBITORS FOR THE TREATMENT OF CANCER, AUTOIMMUNEINFLAMMATION AND CNS DISORDERS” (4SC DISCOVERY GMBH, priority 2012, published 2017)
Where two headings read alike, the source gives them in different places.

Key:
[1] = molecular target: Casein kinase 1 delta (CSKN1D) (Homo sapiens, UniProt P48730); experiment: Casein kinase assay, CK1 delta; assay type: biochemical; conditions: recombinant CSKN1D 5 nM, ATP 10 μM
22RV1 (prostate) = experiment: Proliferation Assay; assay type: cell-based; conditions: Homo sapiens, 72 h, read-out: IC50 inhibition of cell growth
Protocol: (§1) For the determination of the inhibitory capacity of compounds of the present invention (in the following: “test compound(s)”) on cell growth, cancer cells were seeded into microtitre plates, treated with different concentrations of test compound or left untreated, and after 72 h the protein content was determined as an equivalent for the cell number.
(§2) Test compounds were dissolved in 100% DMSO and predilutions in cell culture medium were prepared with a final concentration of 0.1% DMSO in medium. The cell culture medium for dilution of the test compounds, consecutive culturing of cell lines and usage during the assay was a cell line specific medium as recommended by the cell line supplier and identical for all three applications mentioned above. After a 24-hour pre-growth period of the seeded cancer cells, the test compound containing media or medium containing 0.1% DMSO as control was added to the cells. The cells were allowed to grow at 37° C. for 72 hours. In addition, all experiments contained a few plates with cells that were processed for measurement immediately after the 24 hours recovery period. These plates contained information about the cell number that existed before treatment, at time zero, and served to calculate the cytotoxicity and/or growth inhibitory effects.
(§3) After treatment, cells were precipitated by addition of 10% TCA (trichloracetic acid). Prior to fixation, the media was aspirated. After an hour of incubation at 4° C. the plates were washed twice with 400 μl of deionized water. Cells were then stained with 100 μl of a 0.08% wt/v SRB (sulforhodamine). The plates were allowed to sit for at least 30 min and washed six times with 1% acetic acid to remove unbound staining agent. The plates were left to dry at room temperature and bound SRB was solubilized with 100 μl of 10 mM Tris base. Measurement of optical density was performed at 560 nm on a Victor 2 plate reader (Perkin Elmer, Germany).
(§4) One common way to express the effect of an anticancer agent is to measure cell viability and survival in the presence of the test agent as % Treated/Control×100. The relationship between the viability and dose is called a dose response curve. Those dose response curves were determined by using algorithms developed by Oncolead GmbH & Co. KG, Munich, Germany, that can be compared to commercial applications, e.g. XLfit™ (ID Business Solutions Ltd., Guildford, UK) algorithm “205”.

5637 (bladder) = experiment: Proliferation Assay; assay type: cell-based; conditions: 72 h, read-out: IC50 inhibition of cell growth
Protocol: as §1, §2, §3, §4

A204 (muscle) = experiment: Proliferation Assay; assay type: cell-based; conditions: Homo sapiens, 72 h, read-out: IC50 inhibition of cell growth
Protocol: as §1, §2, §3, §4

ACHN (kidney) = experiment: Proliferation Assay; assay type: cell-based; conditions: Homo sapiens, 72 h, read-out: IC50 inhibition of cell growth
Protocol: as §1, §2, §3, §4

CLS439 (bladder) = experiment: Proliferation Assay; assay type: cell-based; conditions: 72 h, read-out: IC50 inhibition of cell growth
Protocol: as §1, §2, §3, §4

COLO205 (colon) = experiment: Proliferation Assay; assay type: cell-based; conditions: Homo sapiens, COLO 205, 72 h, read-out: IC50 inhibition of cell growth
Protocol: as §1, §2, §3, §4

EFO21 (ovary) = experiment: Proliferation Assay; assay type: cell-based; conditions: Homo sapiens, EFO-21, 72 h, read-out: IC50 inhibition of cell growth
Protocol: as §1, §2, §3, §4

HEK293 (kidney) = experiment: Proliferation Assay; assay type: cell-based; conditions: Homo sapiens, 72 h, read-out: IC50 inhibition of cell growth
Protocol: as §1, §2, §3, §4

HELA (cervix) = experiment: Proliferation Assay; assay type: cell-based; conditions: Homo sapiens, 72 h, read-out: IC50 inhibition of cell growth
Protocol: as §1, §2, §3, §4

[2] = test system: HT1080 (connective tissue); experiment: Proliferation Assay; assay type: cell-based; conditions: Homo sapiens, HT-1080, 72 h, read-out: IC50 inhibition of cell growth
Protocol: as §1, §2, §3, §4

IMR90 (lung) = experiment: Proliferation Assay; assay type: cell-based; conditions: Homo sapiens, IMR-90, 72 h, read-out: IC50 inhibition of cell growth
Protocol: as §1, §2, §3, §4

J82 (bladder) = experiment: Proliferation Assay; assay type: cell-based; conditions: 72 h, read-out: IC50 inhibition of cell growth
Protocol: as §1, §2, §3, §4

JIMT1 (breast) = experiment: Proliferation Assay; assay type: cell-based; conditions: Homo sapiens, JIMT-1, 72 h, read-out: IC50 inhibition of cell growth
Protocol: as §1, §2, §3, §4

MT3 (breast) = experiment: Proliferation Assay; assay type: cell-based; conditions: 72 h, read-out: IC50 inhibition of cell growth
Protocol: as §1, §2, §3, §4

PANC1005 (pancreas) = experiment: Proliferation Assay; assay type: cell-based; conditions: Homo sapiens, 72 h, read-out: IC50 inhibition of cell growth
Protocol: as §1, §2, §3, §4

RD (muscle) = experiment: Proliferation Assay; assay type: cell-based; conditions: 72 h, read-out: IC50 inhibition of cell growth
Protocol: as §1, §2, §3, §4

SAOS2 (bone) = experiment: Proliferation Assay; assay type: cell-based; conditions: Homo sapiens, SAOS-2, 72 h, read-out: IC50 inhibition of cell growth
Protocol: as §1, §2, §3, §4

SKMEL28 (skin) = experiment: Proliferation Assay; assay type: cell-based; conditions: Homo sapiens, SK-MEL-28, 72 h, read-out: IC50 inhibition of cell growth
Protocol: as §1, §2, §3, §4

SKMEL5 (skin) = experiment: Proliferation Assay; assay type: cell-based; conditions: Homo sapiens, SK-MEL-5, 72 h, read-out: IC50 inhibition of cell growth
Protocol: as §1, §2, §3, §4

SW620 (colon) = experiment: Proliferation Assay; assay type: cell-based; conditions: Homo sapiens, SW-620, 72 h, read-out: IC50 inhibition of cell growth
Protocol: as §1, §2, §3, §4

T24 (bladder) = experiment: Proliferation Assay; assay type: cell-based; conditions: 72 h, read-out: IC50 inhibition of cell growth
Protocol: as §1, §2, §3, §4

TE671 (muscle) = experiment: Proliferation Assay; assay type: cell-based; conditions: Homo sapiens, TE-671, 72 h, read-out: IC50 inhibition of cell growth
Protocol: as §1, §2, §3, §4

Chain of Casein kinase 1 delta (CSKN1D) (P48730 whole entry): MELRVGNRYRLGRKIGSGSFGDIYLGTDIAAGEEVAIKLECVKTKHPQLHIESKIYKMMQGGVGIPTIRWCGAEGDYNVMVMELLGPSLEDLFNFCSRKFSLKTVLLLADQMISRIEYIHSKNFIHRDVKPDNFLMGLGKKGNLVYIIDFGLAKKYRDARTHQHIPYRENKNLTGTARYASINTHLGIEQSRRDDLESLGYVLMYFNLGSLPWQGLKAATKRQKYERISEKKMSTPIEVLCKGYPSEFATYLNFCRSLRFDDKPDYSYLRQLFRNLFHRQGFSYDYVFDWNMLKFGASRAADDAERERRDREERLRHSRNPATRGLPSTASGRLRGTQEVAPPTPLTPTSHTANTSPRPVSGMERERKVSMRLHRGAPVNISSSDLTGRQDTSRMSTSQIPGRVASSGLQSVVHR

COc1cccc(C(=O)Nc2nc3cc4c(cc3[nH]2)OC(F)(F)O4)c1 [Compound 56, N-(2,2-difluoro-5H-[1,3]dioxolo[4′,5′:4,5]benzo[1,2-d]imidazol-6-yl)-3-methoxybenzamide]
IC50 [1]: < 200 nM
IC50 (22RV1 (prostate)): ≤ 1000 nM
IC50 (5637 (bladder)): ≤ 1000 nM
IC50 (A204 (muscle)): ≤ 1000 nM
IC50 (ACHN (kidney)): ≤ 1000 nM
IC50 (CLS439 (bladder)): ≤ 1000 nM
IC50 (COLO205 (colon)): ≤ 1000 nM
IC50 (EFO21 (ovary)): ≤ 1000 nM
IC50 (HEK293 (kidney)): ≤ 1000 nM
IC50 (HELA (cervix)): ≤ 1000 nM
IC50 [2]: ≤ 1000 nM
IC50 (IMR90 (lung)): ≤ 1000 nM
IC50 (J82 (bladder)): ≤ 1000 nM
IC50 (JIMT1 (breast)): ≤ 1000 nM
IC50 (MT3 (breast)): ≤ 1000 nM
IC50 (PANC1005 (pancreas)): ≤ 1000 nM
IC50 (RD (muscle)): ≤ 1000 nM
IC50 (SAOS2 (bone)): ≤ 1000 nM
IC50 (SKMEL28 (skin)): ≤ 1000 nM
IC50 (SKMEL5 (skin); SKMEL5 (skin)): ≤ 1000 nM
IC50 (SKMEL5 (skin); SKMELS (skin)): ≤ 100 nM
IC50 (SW620 (colon)): ≤ 1000 nM
IC50 (T24 (bladder)): ≤ 1000 nM
IC50 (TE671 (muscle)): ≤ 1000 nM
